Measured values reported in PubChem BioAssay AID1919005 (Molecular Pharmacology Branch, DTP, NCI, 2023).
Where “and” joins values, the source holds several entries; their conditions need not be identical. Equal entries are not always repeated. Values belong to the molecule of their own block, whether it stands above or below them.

Test system: 855422-203-R-J1-PDC complex spheroid growth
Assay: Anticancer human tumor 855422-203-R-J1-PDC patient-derived bladder carcinoma cell line growth inhibition [AhR]
Details: for viability, T/C: stronger effect = lower value
Summary of the method: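 Spheroids combined tumor cells with HUVEC endothelial cells and human MSCs as stroma. AhR antagonists were paired with standard or investigational drugs, each dosed in half-log steps down from near clinical Cmax, or from 10 microM where Cmax was unknown.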

[1] = curve of first compound, second compound 0.1 µM
[2] = curve of first compound, second compound 0.316 µM
[3] = curve of first compound, second compound 1 µM
[4] = curve of first compound, second compound 3.16 µM
[5] = curve of first compound, second compound 10 µM
[6] = second compound 0.1 µM, first compound 0.0316 µM
[7] = second compound 0.1 µM, first compound 0.1 µM
[8] = second compound 0.1 µM, first compound 0.316 µM
[9] = second compound 0.1 µM, first compound 1 µM
[10] = second compound 0.1 µM, first compound 3.16 µM
[11] = second compound 0.1 µM, first compound 10 µM
[12] = second compound 0.316 µM, first compound 0.0316 µM
[13] = second compound 0.316 µM, first compound 0.1 µM
[14] = second compound 0.316 µM, first compound 0.316 µM
[15] = second compound 0.316 µM, first compound 1 µM
[16] = second compound 0.316 µM, first compound 3.16 µM
[17] = second compound 0.316 µM, first compound 10 µM
[18] = second compound 1 µM, first compound 0.0316 µM
[19] = second compound 1 µM, first compound 0.1 µM
[20] = second compound 1 µM, first compound 0.316 µM
[21] = second compound 1 µM, first compound 1 µM
[22] = second compound 1 µM, first compound 3.16 µM
[23] = second compound 1 µM, first compound 10 µM
[24] = second compound 3.16 µM, first compound 0.0316 µM
[25] = second compound 3.16 µM, first compound 0.1 µM
[26] = second compound 3.16 µM, first compound 0.316 µM
[27] = second compound 3.16 µM, first compound 1 µM
[28] = second compound 3.16 µM, first compound 3.16 µM
[29] = second compound 3.16 µM, first compound 10 µM
[30] = second compound 10 µM, first compound 0.0316 µM
[31] = second compound 10 µM, first compound 0.1 µM
[32] = second compound 10 µM, first compound 0.316 µM
[33] = second compound 10 µM, first compound 1 µM
[34] = second compound 10 µM, first compound 3.16 µM
[35] = second compound 10 µM, first compound 10 µM
[36] = second compound 0.1 µM, first compound 0.00949 µM
[37] = second compound 0.1 µM, first compound 0.03 µM
[38] = second compound 0.1 µM, first compound 0.0949 µM
[39] = second compound 0.1 µM, first compound 0.3 µM
[40] = second compound 0.316 µM, first compound 0.00949 µM
[41] = second compound 0.316 µM, first compound 0.03 µM
[42] = second compound 0.316 µM, first compound 0.0949 µM
[43] = second compound 0.316 µM, first compound 0.3 µM
[44] = second compound 1 µM, first compound 0.00949 µM
[45] = second compound 1 µM, first compound 0.03 µM
[46] = second compound 1 µM, first compound 0.0949 µM
[47] = second compound 1 µM, first compound 0.3 µM
[48] = second compound 3.16 µM, first compound 0.00949 µM
[49] = second compound 3.16 µM, first compound 0.03 µM
[50] = second compound 3.16 µM, first compound 0.0949 µM
[51] = second compound 3.16 µM, first compound 0.3 µM
[52] = second compound 10 µM, first compound 0.00949 µM
[53] = second compound 10 µM, first compound 0.03 µM
[54] = second compound 10 µM, first compound 0.0949 µM
[55] = second compound 10 µM, first compound 0.3 µM
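Also: spheroids exposed to agents for seven days before readout.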
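For viability, T/C in this document: percent of DMSO vehicle control luminescence viability.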

SMILES: O=C(C=Cn1cnc(-c2cc(C(F)(F)F)cc(C(F)(F)F)c2)n1)NNc1cnccn1
viability, T/C (compound 0.00949 µM): 110% and 118% and 112%
viability, T/C (compound 0.03 µM): 105% and 125% and 130%
viability, T/C (compound 0.0949 µM): 164% and 169% and 162%
viability, T/C (compound 0.3 µM): 41.3% and 95.5% and 51.4%
viability, T/C (compound 0.949 µM): 29.9% and 55.1% and 35%
viability, T/C (compound 3 µM): 20.7% and 42.1% and 27.6%
IC50 (curve of compound): 267 nM and 917 nM and 327 nM

SMILES: COc1ccc([C@@H](O)c2cc(-c3ncnc4cc(N5CCOCC5)ccc34)c(F)cc2Cl)nn1 + CC(CO)NC(=O)c1cc(-c2ccc(Cl)cc2)nn(-c2cnn(C)c2)c1=O
IC50 [1]: > 10000 nM
IC50 [2]: > 10000 nM
IC50 [3]: > 10000 nM
IC50 [4]: > 10000 nM
IC50 [5]: > 10000 nM
viability, T/C [6]: 94.1%
viability, T/C [7]: 85.3%
viability, T/C [8]: 84.8%
viability, T/C [9]: 86.3%
viability, T/C [10]: 74.7%
viability, T/C [11]: 58.4%
viability, T/C [12]: 96.4%
viability, T/C [13]: 96.6%
viability, T/C [14]: 86%
viability, T/C [15]: 74.5%
viability, T/C [16]: 74.6%
viability, T/C [17]: 54.6%
viability, T/C [18]: 85.3%
viability, T/C [19]: 90.6%
viability, T/C [20]: 92.3%
viability, T/C [21]: 86.9%
viability, T/C [22]: 72.7%
viability, T/C [23]: 55.4%
viability, T/C [24]: 91.5%
viability, T/C [25]: 88.5%
viability, T/C [26]: 98.9%
viability, T/C [27]: 78.5%
viability, T/C [28]: 69.6%
viability, T/C [29]: 54%
viability, T/C [30]: 93.5%
viability, T/C [31]: 103%
viability, T/C [32]: 82%
viability, T/C [33]: 84.2%
viability, T/C [34]: 71%
viability, T/C [35]: 54.4%

SMILES: CCN(c1cc(-c2ccc(CN3CCOCC3)cc2)cc(C(=O)NCc2c(C)cc(C)[nH]c2=O)c1C)C1CCOCC1 + Cc1cncc(-c2nc(NCCc3c[nH]c4ccccc34)c3ncn(C(C)C)c3n2)c1
IC50 [1]: > 3000 nM
IC50 [2]: > 3000 nM
IC50 [3]: > 3000 nM
IC50 [4]: > 3000 nM
IC50 [5]: < 9.49 nM
viability, T/C [36]: 90.5%
viability, T/C [37]: 84.7%
viability, T/C [38]: 92%
viability, T/C [39]: 83.1%
viability, T/C (second compound 0.1 µM, first compound 0.949 µM): 85.3%
viability, T/C (second compound 0.1 µM, first compound 3 µM): 70.7%
viability, T/C [40]: 88.9%
viability, T/C [41]: 78.3%
viability, T/C [42]: 86.6%
viability, T/C [43]: 74.2%
viability, T/C (second compound 0.316 µM, first compound 0.949 µM): 76.2%
viability, T/C (second compound 0.316 µM, first compound 3 µM): 75.7%
viability, T/C [44]: 89.4%
viability, T/C [45]: 85.7%
viability, T/C [46]: 74.8%
viability, T/C [47]: 75%
viability, T/C (second compound 1 µM, first compound 0.949 µM): 76.1%
viability, T/C (second compound 1 µM, first compound 3 µM): 73.7%
viability, T/C [48]: 74.8%
viability, T/C [49]: 85.5%
viability, T/C [50]: 64.1%
viability, T/C [51]: 51.7%
viability, T/C (second compound 3.16 µM, first compound 0.949 µM): 69%
viability, T/C (second compound 3.16 µM, first compound 3 µM): 66.3%
viability, T/C [52]: 24.9%
viability, T/C [53]: 32.4%
viability, T/C [54]: 15.5%
viability, T/C [55]: 1.7%
viability, T/C (second compound 10 µM, first compound 0.949 µM): 4.26%
viability, T/C (second compound 10 µM, first compound 3 µM): 0.96%

Now from value to molecule, other results behind:

IC50 [1]: 551 nM
IC50 [2]: 573 nM
IC50 [3]: 498 nM
IC50 [4]: 327 nM
IC50 [5]: 251 nM
SMILES: COc1cc(C2c3cc4c(cc3C(OC3OC5COC(C)OC5C(O)C3O)C3COC(=O)C23)OCO4)cc(OC)c1O (configuration not stated) + CC(CO)NC(=O)c1cc(-c2ccc(Cl)cc2)nn(-c2cnn(C)c2)c1=O
viability, T/C [6]: 104%
viability, T/C [7]: 93.5%
viability, T/C [8]: 72.9%
viability, T/C [9]: 25.6%
viability, T/C [10]: 12.7%
viability, T/C [11]: 6.98%
viability, T/C [12]: 94.2%
viability, T/C [13]: 96%
viability, T/C [14]: 75.6%
viability, T/C [15]: 25.4%
viability, T/C [16]: 12.1%
viability, T/C [17]: 5.1%
viability, T/C [18]: 98.5%
viability, T/C [19]: 103%
viability, T/C [20]: 64.3%
viability, T/C [21]: 25.6%
viability, T/C [22]: 11.1%
viability, T/C [23]: 4.66%
viability, T/C [24]: 89.5%
viability, T/C [25]: 91.8%
viability, T/C [26]: 48.2%
viability, T/C [27]: 19.4%
viability, T/C [28]: 9.59%
viability, T/C [29]: 3.77%
viability, T/C [30]: 96.2%
viability, T/C [31]: 82.3%
viability, T/C [32]: 37.1%
viability, T/C [33]: 24.3%
viability, T/C [34]: 8.67%
viability, T/C [35]: 4.32%

IC50 [1]: > 300 nM
IC50 [2]: > 300 nM
IC50 [3]: > 300 nM
IC50 [4]: > 300 nM
IC50 [5]: > 300 nM
SMILES: Nc1ncn(C2CC(O)C(CO)S2)c(=O)n1 (configuration not stated) + CC(CO)NC(=O)c1cc(-c2ccc(Cl)cc2)nn(-c2cnn(C)c2)c1=O
viability, T/C (second compound 0.1 µM, first compound 0.000949 µM): 91.9%
viability, T/C (second compound 0.1 µM, first compound 0.003 µM): 90.2%
viability, T/C [36]: 88.3%
viability, T/C [37]: 93.4%
viability, T/C [38]: 96.7%
viability, T/C [39]: 87.4%
viability, T/C (second compound 0.316 µM, first compound 0.000949 µM): 97.3%
viability, T/C (second compound 0.316 µM, first compound 0.003 µM): 93.3%
viability, T/C [40]: 99.4%
viability, T/C [41]: 95.2%
viability, T/C [42]: 87.6%
viability, T/C [43]: 82.2%
viability, T/C (second compound 1 µM, first compound 0.000949 µM): 99.9%
viability, T/C (second compound 1 µM, first compound 0.003 µM): 90.9%
viability, T/C [44]: 101%
viability, T/C [45]: 92.1%
viability, T/C [46]: 101%
viability, T/C [47]: 86.7%
viability, T/C (second compound 3.16 µM, first compound 0.000949 µM): 91.8%
viability, T/C (second compound 3.16 µM, first compound 0.003 µM): 94.5%
viability, T/C [48]: 85.3%
viability, T/C [49]: 101%
viability, T/C [50]: 90.9%
viability, T/C [51]: 80.4%
viability, T/C (second compound 10 µM, first compound 0.000949 µM): 92.5%
viability, T/C (second compound 10 µM, first compound 0.003 µM): 98%
viability, T/C [52]: 87.3%
viability, T/C [53]: 93.5%
viability, T/C [54]: 89.8%
viability, T/C [55]: 80.3%

IC50 [1]: 468 nM
IC50 [2]: 463 nM
IC50 [3]: 505 nM
IC50 [4]: 434 nM
IC50 [5]: 368 nM
SMILES: COc1cc(C2c3cc4c(cc3C(OC3OC5COC(C)OC5C(O)C3O)C3COC(=O)C23)OCO4)cc(OC)c1O (configuration not stated) + Cc1ccccc1N=Nc1ccc(NC(=O)c2ccnn2C)c(C)c1
viability, T/C [6]: 96.5%
viability, T/C [7]: 93.2%
viability, T/C [8]: 60.8%
viability, T/C [9]: 26.7%
viability, T/C [10]: 15.2%
viability, T/C [11]: 7.04%
viability, T/C [12]: 93.7%
viability, T/C [13]: 96.6%
viability, T/C [14]: 61%
viability, T/C [15]: 24.6%
viability, T/C [16]: 14.8%
viability, T/C [17]: 6.03%
viability, T/C [18]: 98.8%
viability, T/C [19]: 95.7%
viability, T/C [20]: 65%
viability, T/C [21]: 26.5%
viability, T/C [22]: 15.9%
viability, T/C [23]: 6.19%
viability, T/C [24]: 82.9%
viability, T/C [25]: 83.9%
viability, T/C [26]: 58.1%
viability, T/C [27]: 25.3%
viability, T/C [28]: 12.4%
viability, T/C [29]: 5.67%
viability, T/C [30]: 83%
viability, T/C [31]: 82.8%
viability, T/C [32]: 48.3%
viability, T/C [33]: 29.8%
viability, T/C [34]: 13.7%
viability, T/C [35]: 7.06%
